Assay [1] concerns the target T1, mouse GLP-1 receptor (Mus musculus, UniProt O35659).
T1 sequence (O35659 22-463): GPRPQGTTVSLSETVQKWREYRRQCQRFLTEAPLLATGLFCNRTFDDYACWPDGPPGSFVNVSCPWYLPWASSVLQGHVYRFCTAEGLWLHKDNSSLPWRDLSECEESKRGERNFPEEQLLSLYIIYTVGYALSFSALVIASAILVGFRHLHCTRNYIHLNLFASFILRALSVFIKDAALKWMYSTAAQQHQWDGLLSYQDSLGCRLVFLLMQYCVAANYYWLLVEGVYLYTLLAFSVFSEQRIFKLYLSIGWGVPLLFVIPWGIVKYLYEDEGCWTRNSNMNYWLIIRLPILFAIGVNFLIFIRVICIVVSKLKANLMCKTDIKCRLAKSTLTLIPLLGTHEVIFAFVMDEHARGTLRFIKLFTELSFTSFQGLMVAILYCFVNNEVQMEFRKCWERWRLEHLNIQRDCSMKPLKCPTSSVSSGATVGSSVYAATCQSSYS

Assay [2] addresses human glucagon receptor (Homo sapiens, UniProt P47871). In words: cell-based.
Experimental: The in vitro functional potency is the measure of target receptor activation in a whole cell assay.
In vitro functional potency was determined by measuring the response of the target receptor in a reporter gene assay in individual cell lines. […] When the respective receptor is activated, it results in the production of cAMP, which in turn results in expression of the luciferase protein. When assay incubation is completed, luciferase substrate (luciferin) is added resulting in the enzymatic conversion of luciferin to oxyluciferin and producing bioluminescence. The luminescence is measured as the readout for the assay.
The cells lines used in these assays were BHK cells with BHKTS13 as a parent cell line. The cell lines were derived from a clone containing the CRE luciferase element and were established by further transfection with the respective receptor to obtain the relevant cell line.
The cells were cultured at 37° C. with 5% CO2 in Cell Culture Medium. They were aliquoted and stored in liquid nitrogen. The cells were kept in continuous culture and were seeded out the day before each assay.
GLP-1R and GcgR Cell Culture Medium consisted of DMEM medium with 10% FBS, 500 μg/mL G418, and 300 μg/mL hygromycin. GIPR Cell Culture Medium consisted of DMEM medium with 10% FBS, 400 μg/mL G418, and 300 μg/mL hygromycin. Assay Buffer consisted of DMEM w/o phenol red, 10 mM Hepes, 1×Glutamax, 1% ovalbumin, and 0.1% Pluronic F-68 with the addition of HSA at twice the final assay concentration.
• 1) Cells were plated at 5000 cells/well and incubated overnight in the assay plate. • 2) Cells were washed once in DPBS. • 3) Stocks of the test compounds and reference compounds in concentrations ranging from 100-300 μM were diluted 1:150 in Assay Buffer. Compounds were then diluted 1:10 in column 1 of a 96 deep well dilution plate and then carried across the row creating a 3.5 fold, 12 point dilution curve. • 4) Assay Buffer (50 μl aliquot) with or without HSA was added to each well in the assay plate. • 5) A 50 μl aliquot of compound or blank was transferred from the dilution plate to the assay plate containing the Assay Buffer with or without HSA. • 6) The assay plate was incubated for 3 h in a 5% CO2 incubator at 37° C. 7) The cells were washed once with DPBS. • 8) A 100 μl aliquot of DPBS was added to each well of the assay plate. • 9) A 100 μl aliquot of steadylite plus reagent (light sensitive) was added to each well of the assay plate. • 10) Each assay plate was covered with aluminum foil to protect it from light and shaken at 250 RPM for 30 min at room temperature. • 11) Each assay plate was read in a microtiter plate reader.
The data from the microtiter plate reader was first regressed in an Excel in order to calculate the x-axis, log scale concentrations based on the individual test compound's stock concentration and the dilutions of the assay. […] The software performs a non-linear regression (log(agonist) vs response). A minimum of two replicates was measured for each sample. The reported values are averages of the replicates.
The target in assay [3] is T2, mouse GIP receptor (Mus musculus, UniProt Q0P543).
T2 sequence (Q0P543 19-460): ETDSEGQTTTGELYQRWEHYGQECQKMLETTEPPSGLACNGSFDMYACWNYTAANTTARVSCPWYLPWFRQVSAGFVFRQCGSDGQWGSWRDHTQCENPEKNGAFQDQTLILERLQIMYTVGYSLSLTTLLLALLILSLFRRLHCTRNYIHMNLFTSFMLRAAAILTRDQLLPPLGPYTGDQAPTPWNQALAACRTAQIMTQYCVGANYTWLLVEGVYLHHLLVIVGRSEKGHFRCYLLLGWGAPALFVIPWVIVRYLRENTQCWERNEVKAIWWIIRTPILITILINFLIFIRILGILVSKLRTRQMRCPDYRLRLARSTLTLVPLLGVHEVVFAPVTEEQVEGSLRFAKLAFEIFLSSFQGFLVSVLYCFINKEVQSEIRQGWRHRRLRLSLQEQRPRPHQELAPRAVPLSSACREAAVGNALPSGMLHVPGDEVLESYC
In words: cell-based.

Assay [4] concerns the target human GLP-1 receptor (Homo sapiens, UniProt P43220). Briefly: cell-based. Particulars: hGLP-1R.

Starred links: 1 amine or outer side, 2 acyl side, 3 side chain; linkers in the order of their positions; H or OH if unused. Non-standard residues stand in square brackets, D forms with d. Residues, ends and D or L forms follow the SMILES beside them. Groups on a side chain read outwards from the residue. *: point of attachment. C20 diacid = O=C(O)CCCCCCCCCCCCCCCCCCC(=O)*; γGlu = O=C(O)[C@H](CCC(=O)[*:2])N[*:1]; εLys = N[C@@H](CCCCN[*:1])C(=O)[*:2]; Trx = NC[C@H]1CC[C@H](C(=O)O)CC1; AEEA = NCCOCCOCC(=O)O; Aib = CC(C)(N)C(=O)O

human glucagon receptor, sequence (P47871 26-477): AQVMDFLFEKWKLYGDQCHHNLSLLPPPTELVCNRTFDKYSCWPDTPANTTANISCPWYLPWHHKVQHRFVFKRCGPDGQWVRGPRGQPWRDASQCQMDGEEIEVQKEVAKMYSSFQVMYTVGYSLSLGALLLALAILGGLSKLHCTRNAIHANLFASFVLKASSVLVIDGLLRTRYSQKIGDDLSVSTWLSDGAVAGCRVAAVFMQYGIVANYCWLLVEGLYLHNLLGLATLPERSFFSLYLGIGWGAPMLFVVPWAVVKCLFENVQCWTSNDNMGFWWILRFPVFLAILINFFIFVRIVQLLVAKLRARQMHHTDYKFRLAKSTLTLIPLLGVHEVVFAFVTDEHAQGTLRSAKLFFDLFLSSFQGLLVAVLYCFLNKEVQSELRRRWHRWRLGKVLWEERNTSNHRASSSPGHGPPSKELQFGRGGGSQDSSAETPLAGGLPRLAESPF
human GLP-1 receptor, sequence (P43220 24-463): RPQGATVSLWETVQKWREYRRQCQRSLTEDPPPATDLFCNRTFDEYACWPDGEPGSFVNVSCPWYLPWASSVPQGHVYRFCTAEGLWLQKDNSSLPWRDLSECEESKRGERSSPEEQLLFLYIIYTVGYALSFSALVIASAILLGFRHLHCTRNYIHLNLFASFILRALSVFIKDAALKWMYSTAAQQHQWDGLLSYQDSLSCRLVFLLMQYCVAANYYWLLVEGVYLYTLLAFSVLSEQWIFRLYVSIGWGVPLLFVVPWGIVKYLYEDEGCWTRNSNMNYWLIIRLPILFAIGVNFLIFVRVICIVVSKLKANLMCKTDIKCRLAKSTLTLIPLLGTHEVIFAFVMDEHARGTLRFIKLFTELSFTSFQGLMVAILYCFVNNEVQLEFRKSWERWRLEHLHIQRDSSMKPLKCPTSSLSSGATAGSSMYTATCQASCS

Take `CC[C@H](C)[C@H](NC(=O)[C@H](CO)NC(=O)[C@H](Cc1ccc(O)cc1)NC(=O)[C@H](CC(=O)O)NC(=O)[C@H](CO)NC(=O)[C@@H](NC(=O)[C@H](Cc1ccccc1)NC(=O)[C@@H](NC(=O)CNC(=O)[C@H](CCC(=O)O)NC(=O)C(C)(C)NC(=O)[C@@H](N)Cc1ccc(O)cc1)[C@@H](C)O)[C@@H](C)O)C(=O)N[C@@H](Cc1ccc(O)cc1)C(=O)N[C@@H](CC(C)C)C(=O)N[C@@H](CC(=O)O)C(=O)N[C@@H](CCCCN)C(=O)N[C@@H](CCC(N)=O)C(=O)N[C@@H](C)C(=O)N[C@@H](C)C(=O)NC(C)(C)C(=O)N[C@@H](CCCCNC(=O)[C@@H](N)CCCCNC(=O)[C@@H](N)CCCCNC(=O)CC[C@H](NC(=O)CCCCCCCCCCCCCCCCCCC(=O)O)C(=O)O)C(=O)N[C@@H](Cc1ccccc1)C(=O)N[C@H](C(=O)N[C@@H](CC(N)=O)C(=O)N[C@@H](Cc1c[nH]c2ccccc12)C(=O)N[C@@H](CC(C)C)C(=O)N[C@@H](CC(C)C)C(=O)N[C@@H](C)C(=O)NCC(=O)NCC(=O)N1CCC[C@H]1C(=O)N[C@@H](CO)C(=O)N[C@@H](CO)C(=O)NCC(=O)N[C@@H](C)C(=O)N1CCC[C@H]1C(=O)N1CCC[C@H]1C(=O)N1CCC[C@H]1C(=O)N[C@@H](CO)C(N)=O)C(C)C` [Compound 13] (H-Y[Aib]EGTFTSDYSIYLDKQAA[Aib]K([εLys-εLys-γGlu-C20 diacid])FVNWLLAGGPSSGAPPPS-NH2; N-terminus assumed): the half-maximal effective concentration (EC50) in assay [1] is 0.0054 nM; in assay [2], over 10 nM; in assay [3], 0.057 nM; in assay [4] (CRE Luc 0% HSA EC50, 0% HSA), 0.0124 nM; in assay [4] (CRE Luc 1% HSA EC50, 1% HSA), 0.103 nM.

On to `CC[C@H](C)[C@H](NC(=O)[C@H](CO)NC(=O)[C@H](Cc1ccc(O)cc1)NC(=O)[C@H](CC(=O)O)NC(=O)[C@H](CO)NC(=O)[C@@H](NC(=O)[C@H](Cc1ccccc1)NC(=O)[C@@H](NC(=O)CNC(=O)[C@H](CCC(=O)O)NC(=O)C(C)(C)NC(=O)[C@@H](N)Cc1ccc(O)cc1)[C@@H](C)O)[C@@H](C)O)C(=O)N[C@@H](Cc1ccc(O)cc1)C(=O)N[C@@H](CC(C)C)C(=O)N[C@@H](CC(=O)O)C(=O)N[C@@H](CCCCN)C(=O)N[C@@H](CCC(N)=O)C(=O)N[C@@H](C)C(=O)N[C@@H](C)C(=O)NC(C)(C)C(=O)N[C@@H](CCCCNC(=O)[C@@H](N)CCCCNC(=O)[C@@H](N)CCCCNC(=O)CC[C@H](NC(=O)[C@H]1CC[C@H](CNC(=O)CCCCCCCCCCCCCCCCCCC(=O)O)CC1)C(=O)O)C(=O)N[C@@H](Cc1ccccc1)C(=O)N[C@H](C(=O)N[C@@H](CC(N)=O)C(=O)N[C@@H](Cc1c[nH]c2ccccc12)C(=O)N[C@@H](CC(C)C)C(=O)N[C@@H](CC(C)C)C(=O)N[C@@H](C)C(=O)NCC(=O)NCC(=O)N1CCC[C@H]1C(=O)N[C@@H](CO)C(=O)N[C@@H](CO)C(=O)NCC(=O)N[C@@H](C)C(=O)N1CCC[C@H]1C(=O)N1CCC[C@H]1C(=O)N1CCC[C@H]1C(=O)N[C@@H](CO)C(N)=O)C(C)C` [Compound 14] (H-Y[Aib]EGTFTSDYSIYLDKQAA[Aib]K([εLys-εLys-γGlu-Trx-C20 diacid])FVNWLLAGGPSSGAPPPS-NH2; N-terminus assumed), for which the half-maximal effective concentration (EC50) is 0.006 nM in assay [1]; over 10 nM in assay [2]; 0.0186 nM in assay [3]; 0.0114 nM in assay [4] (CRE Luc 0% HSA EC50, 0% HSA); 0.377 nM in assay [4] (CRE Luc 1% HSA EC50, 1% HSA).

As to `CC[C@H](C)[C@H](NC(=O)[C@H](CO)NC(=O)[C@H](Cc1ccc(O)cc1)NC(=O)[C@H](CC(=O)O)NC(=O)[C@H](CO)NC(=O)[C@@H](NC(=O)[C@H](Cc1ccccc1)NC(=O)[C@@H](NC(=O)CNC(=O)[C@H](CCC(=O)O)NC(=O)C(C)(C)NC(=O)[C@@H](N)Cc1ccc(O)cc1)[C@@H](C)O)[C@@H](C)O)C(=O)N[C@@H](Cc1ccc(O)cc1)C(=O)N[C@@H](CC(C)C)C(=O)N[C@@H](CCC(=O)O)C(=O)N[C@@H](CCCCN)C(=O)N[C@@H](CCC(N)=O)C(=O)N[C@@H](C)C(=O)N[C@@H](C)C(=O)NC(C)(C)C(=O)N[C@@H](CCCCNC(=O)[C@@H](N)CCCCNC(=O)[C@@H](N)CCCCNC(=O)CC[C@H](NC(=O)[C@H]1CC[C@H](CNC(=O)CCCCCCCCCCCCCCCCCCC(=O)O)CC1)C(=O)O)C(=O)N[C@@H](Cc1ccccc1)C(=O)N[C@H](C(=O)N[C@@H](CC(N)=O)C(=O)N[C@@H](Cc1c[nH]c2ccccc12)C(=O)N[C@@H](CC(C)C)C(=O)N[C@@H](CC(C)C)C(=O)N[C@@H](C)C(=O)NCC(=O)NCC(=O)N1CCC[C@H]1C(=O)N[C@@H](CO)C(=O)N[C@@H](CO)C(=O)NCC(=O)N[C@@H](C)C(=O)N1CCC[C@H]1C(=O)N1CCC[C@H]1C(=O)N1CCC[C@H]1C(=O)N[C@@H](CO)C(N)=O)C(C)C` [Compound 16] (H-Y[Aib]EGTFTSDYSIYLEKQAA[Aib]K([εLys-εLys-γGlu-Trx-C20 diacid])FVNWLLAGGPSSGAPPPS-NH2; N-terminus assumed), the concentration for a half-maximal effect (EC50) is 0.0035 nM in assay [1]; over 10 nM in assay [2]; 0.0169 nM in assay [3]; 0.0061 nM in assay [4] (CRE Luc 0% HSA EC50, 0% HSA); 0.202 nM in assay [4] (CRE Luc 1% HSA EC50, 1% HSA).

As for `CC[C@H](C)[C@H](NC(=O)[C@H](CO)NC(=O)[C@H](Cc1ccc(O)cc1)NC(=O)[C@H](CC(=O)O)NC(=O)[C@H](CO)NC(=O)[C@@H](NC(=O)[C@H](Cc1ccccc1)NC(=O)[C@@H](NC(=O)CNC(=O)[C@H](CCC(=O)O)NC(=O)C(C)(C)NC(=O)[C@@H](N)Cc1ccc(O)cc1)[C@@H](C)O)[C@@H](C)O)C(=O)N[C@@H](Cc1ccc(O)cc1)C(=O)N[C@@H](CC(C)C)C(=O)N[C@@H](CCC(=O)O)C(=O)N[C@@H](CCCCN)C(=O)N[C@@H](CCC(N)=O)C(=O)N[C@@H](C)C(=O)N[C@@H](C)C(=O)NC(C)(C)C(=O)N[C@@H](CCCCNC(=O)COCCOCCNC(=O)COCCOCCNC(=O)CC[C@H](NC(=O)[C@H]1CC[C@H](CNC(=O)CCCCCCCCCCCCCCCCCCC(=O)O)CC1)C(=O)O)C(=O)N[C@@H](Cc1ccccc1)C(=O)N[C@H](C(=O)N[C@@H](CC(N)=O)C(=O)N[C@@H](Cc1c[nH]c2ccccc12)C(=O)N[C@@H](CC(C)C)C(=O)N[C@@H](CC(C)C)C(=O)N[C@@H](C)C(=O)NCC(=O)NCC(=O)N1CCC[C@H]1C(=O)N[C@@H](CO)C(=O)N[C@@H](CO)C(=O)NCC(=O)N[C@@H](C)C(=O)N1CCC[C@H]1C(=O)N1CCC[C@H]1C(=O)N1CCC[C@H]1C(=O)N[C@@H](CO)C(N)=O)C(C)C` [Compound 17] (H-Y[Aib]EGTFTSDYSIYLEKQAA[Aib]K([AEEA-AEEA-γGlu-Trx-C20 diacid])FVNWLLAGGPSSGAPPPS-NH2; N-terminus assumed), the EC50 was 0.0023 nM in assay [1]; over 10 nM in assay [2]; 0.0219 nM in assay [3]; 0.0041 nM in assay [4] (CRE Luc 0% HSA EC50, 0% HSA); 0.229 nM in assay [4] (CRE Luc 1% HSA EC50, 1% HSA).

Turning to `CC[C@H](C)[C@H](NC(=O)[C@H](CO)NC(=O)[C@H](Cc1ccc(O)cc1)NC(=O)[C@H](CC(=O)O)NC(=O)[C@H](CO)NC(=O)[C@@H](NC(=O)[C@H](Cc1ccccc1)NC(=O)[C@@H](NC(=O)CNC(=O)[C@H](CCC(=O)O)NC(=O)C(C)(C)NC(=O)[C@@H](N)Cc1ccc(O)cc1)[C@@H](C)O)[C@@H](C)O)C(=O)N[C@@H](Cc1ccc(O)cc1)C(=O)N[C@@H](CC(C)C)C(=O)N[C@@H](CCC(=O)O)C(=O)N[C@@H](CCCCN)C(=O)N[C@@H](CCCCNC(=O)[C@@H](N)CCCCNC(=O)[C@@H](N)CCCCNC(=O)CC[C@H](NC(=O)[C@H]1CC[C@H](CNC(=O)CCCCCCCCCCCCCCCCCCC(=O)O)CC1)C(=O)O)C(=O)N[C@@H](C)C(=O)N[C@@H](C)C(=O)NC(C)(C)C(=O)N[C@@H](CCC(=O)O)C(=O)N[C@@H](Cc1ccccc1)C(=O)N[C@H](C(=O)N[C@@H](CCC(N)=O)C(=O)N[C@@H](Cc1c[nH]c2ccccc12)C(=O)N[C@@H](CC(C)C)C(=O)N[C@@H](CC(C)C)C(=O)N[C@@H](CCC(=O)O)C(=O)NCC(=O)NCC(=O)N1CCC[C@H]1C(=O)N[C@@H](CO)C(=O)N[C@@H](CO)C(=O)NCC(=O)N[C@@H](C)C(=O)N1CCC[C@H]1C(=O)N1CCC[C@H]1C(=O)N1CCC[C@H]1C(=O)N[C@@H](CO)C(N)=O)C(C)C` [Compound 34] (H-Y[Aib]EGTFTSDYSIYLEKK([εLys-εLys-γGlu-Trx-C20 diacid])AA[Aib]EFVQWLLEGGPSSGAPPPS-NH2; N-terminus assumed), the EC50 in assay [1] worked out at 0.0018 nM; in assay [3] it was 0.0195 nM; in assay [4] (CRE Luc 0% HSA EC50, 0% HSA), 0.0032 nM; in assay [4] (CRE Luc 1% HSA EC50, 1% HSA) it was 0.379 nM.

The values are drawn from patent US20230346961A1, “GLP-1 AND GIP RECEPTOR CO-AGONISTS” (Novo Nordisk A/S, priority 2020, published 2023).
